Experimental data taken from patent publication US20210122763A1, “OGA INHIBITOR COMPOUNDS” (Janssen Pharmaceutica NV, priority 2018, published 2021).

Molecular target: T1, OGA (Mus musculus, UniProt Q9EQQ9)
T1 construct: Brains were immediately removed from the skull; from tissue; host or cells: mouse brain (forebrain area of sagittal sections)
T1 sequence (Q9EQQ9 1-916): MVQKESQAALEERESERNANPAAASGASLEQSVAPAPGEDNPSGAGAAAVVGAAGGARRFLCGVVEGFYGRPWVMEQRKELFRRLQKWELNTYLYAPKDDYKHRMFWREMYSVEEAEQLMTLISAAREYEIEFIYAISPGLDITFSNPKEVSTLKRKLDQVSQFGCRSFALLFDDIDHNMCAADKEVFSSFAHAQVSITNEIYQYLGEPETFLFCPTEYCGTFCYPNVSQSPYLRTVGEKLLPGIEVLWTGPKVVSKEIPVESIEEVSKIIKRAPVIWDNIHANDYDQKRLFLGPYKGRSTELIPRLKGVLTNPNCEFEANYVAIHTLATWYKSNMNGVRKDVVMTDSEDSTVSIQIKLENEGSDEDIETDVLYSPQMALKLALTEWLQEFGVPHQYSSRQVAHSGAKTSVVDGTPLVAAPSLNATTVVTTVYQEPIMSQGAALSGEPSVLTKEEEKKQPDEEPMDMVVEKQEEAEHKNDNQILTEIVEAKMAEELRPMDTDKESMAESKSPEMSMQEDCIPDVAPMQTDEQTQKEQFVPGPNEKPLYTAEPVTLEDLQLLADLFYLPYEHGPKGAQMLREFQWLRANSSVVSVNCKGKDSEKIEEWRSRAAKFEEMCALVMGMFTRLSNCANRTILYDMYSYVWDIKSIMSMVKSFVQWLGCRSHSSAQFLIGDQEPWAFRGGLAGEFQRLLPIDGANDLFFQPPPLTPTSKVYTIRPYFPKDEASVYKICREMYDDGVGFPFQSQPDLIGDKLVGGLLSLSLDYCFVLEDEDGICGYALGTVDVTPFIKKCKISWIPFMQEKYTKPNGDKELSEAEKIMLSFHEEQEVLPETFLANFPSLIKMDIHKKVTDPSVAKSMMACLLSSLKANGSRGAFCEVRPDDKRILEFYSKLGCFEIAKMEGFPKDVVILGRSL
Experiment: Ex vivo OGA occupancy assay using [3H]-ligand
Assay type: in vivo
Conditions: male NMRI or C57Bl6j mice, p.o., 24 h after administration, forebrain area of brain sections, 3 nM [3H]-ligand, normalised to vehicle; for receptor occupancy at 25 mg/kg: mouse, po, read-out: Occupancy (% +/− sd)
Protocol: 3) Ex Vivo OGA Occupancy Assay Using [3H]-Ligand Drug Treatment and Tissue Preparation
Male NMRI or C57Bl6j mice were treated by oral (p.o.) administration of vehicle or compound. Animals were sacrificed 24 hours after administration. Brains were immediately removed from the skull, hemispheres were separated and the right hemisphere, for ex vivo OGA occupancy assay, was rapidly frozen in dry-ice cooled 2-methylbutane (−40° C.). […] sagittal sections were cut using a Leica CM 3050 cryostat-microtome (Leica, Belgium), thaw-mounted on microscope slides (SuperFrost Plus Slides, Thermo Fisher Scientific) and stored at −20° C. until use. After thawing, sections were dried under a cold stream of air. The sections were not washed prior to incubation. The 10 minutes incubation with 3 nM [^3H]-ligand was rigorously controlled. All brain sections (from compound-treated and vehicle-treated animals) were incubated in parallel. After incubation, the excess of [^3H]-ligand was washed off in ice-cold buffer (PBS 1× and 1% BSA) 2 times 10 minutes, followed by a quick dip in distilled water. The sections were then dried under a stream of cold air.
QUANTITATIVE AUTORADIOGRAPHY AND DATA ANALYSIS Radioactivity in the forebrain area of brain slices was measured using a P-imager with M3 vision analysis software (Biospace Lab, Paris). Specific binding was calculated as the difference between total binding and non-specific binding measured in Thiamet-G (10 μM) treated sections. Specific binding in sections from drug treated animals was normalised to binding in sections from vehicle treated mice to calculate percentage of OGA occupancy by the drug.

Row | Compound | receptor occupancy at 25 mg/kg | Occupancy (% +/− sd) (25 mg/kg)
1 | Cc1cc(OC2CCN([C@@H](C)c3nc4nc(C)sc4cc3F)CC2)cc(C)n1 (single isomer, unassigned) [Compound 83] | 97% | –
2 | Cc1cc(OC2CCN([C@H](C)c3nc4c(cc3F)OCCO4)CC2)cc(C)n1 (single isomer, unassigned) [Compound 148] | 84.3% | 77.67 +/− 10.5%
3 | Cc1ncc(OC2CCN(C(C)c3nc4c(cc3F)CCO4)CC2)cn1 (centres unmarked) [Compound 95] | 20% | –
4 | Cc1cc(OC2CCN([C@H](C)c3nc4c(cc3F)CCO4)CC2)cc(C)n1 (single isomer, unassigned) [Compound 144] | 94.7% | –
